How the values were obtained:
[1] = test system: solid tumors; conditions: Rutkowski et al. 2019; cited from earlier work
[2] = target: programmed death receptor-1 (PD-1) (Homo sapiens, UniProt Q15116); conditions: cited from earlier work
[3] = clinical trials, preliminary data, cited from earlier work
[4] = target: T1, human Adenosine A3 receptor (Homo sapiens, UniProt P0DMS8); test: Adenosine receptor TR-FRET binding assay (CA200645 displacement), A3
T1 sequence (P0DMS8 1-318): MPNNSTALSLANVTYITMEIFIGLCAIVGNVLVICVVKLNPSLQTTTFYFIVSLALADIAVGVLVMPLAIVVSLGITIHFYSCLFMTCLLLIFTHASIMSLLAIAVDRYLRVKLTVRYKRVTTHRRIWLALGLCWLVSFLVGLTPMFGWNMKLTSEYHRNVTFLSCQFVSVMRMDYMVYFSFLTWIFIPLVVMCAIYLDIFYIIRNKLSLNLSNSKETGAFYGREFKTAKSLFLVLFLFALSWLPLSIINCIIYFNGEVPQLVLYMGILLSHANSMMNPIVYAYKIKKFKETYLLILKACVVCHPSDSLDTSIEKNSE

[5] = target: T2, human Adenosine A1 receptor (Homo sapiens, UniProt P30542); test: Adenosine receptor TR-FRET binding assay (CA200645 displacement), A1
T2 sequence (P30542 1-326): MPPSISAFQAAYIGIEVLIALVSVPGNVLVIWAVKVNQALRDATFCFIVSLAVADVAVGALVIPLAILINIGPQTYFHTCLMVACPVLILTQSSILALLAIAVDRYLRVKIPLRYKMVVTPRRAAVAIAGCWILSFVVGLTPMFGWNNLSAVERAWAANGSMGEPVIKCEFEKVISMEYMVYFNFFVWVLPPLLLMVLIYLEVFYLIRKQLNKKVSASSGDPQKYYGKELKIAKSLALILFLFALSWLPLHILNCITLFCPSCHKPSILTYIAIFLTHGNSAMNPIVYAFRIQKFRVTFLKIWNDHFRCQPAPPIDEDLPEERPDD

[6] = target: T3, human Adenosine A2b receptor (Homo sapiens, UniProt P29275); test: Adenosine receptor TR-FRET binding assay (CA200645 displacement), A2b; conditions: 30 nM CA200645, CHO cell membranes, 2 hours at room temperature
T3 construct: expressed in transfected cells; host or cells: CHO cell membranes
T3 sequence (P29275 1-332): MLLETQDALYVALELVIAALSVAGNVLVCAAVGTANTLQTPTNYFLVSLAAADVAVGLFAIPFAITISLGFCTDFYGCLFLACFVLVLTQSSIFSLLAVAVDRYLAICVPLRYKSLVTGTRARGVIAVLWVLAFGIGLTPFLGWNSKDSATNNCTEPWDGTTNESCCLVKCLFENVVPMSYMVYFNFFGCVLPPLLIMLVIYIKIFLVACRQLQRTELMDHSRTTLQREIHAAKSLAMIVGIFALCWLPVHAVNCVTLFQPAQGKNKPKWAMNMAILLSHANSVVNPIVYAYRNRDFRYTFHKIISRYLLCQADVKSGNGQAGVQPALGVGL
Description: All FRET binding experiments were conducted at room temperature in white 384-well plates, in assay binding buffer containing 1×LabMed (Cisbio, France), 100 μg/mL saponin, 1% DMSO and 0.02% pluronic acid. Binding of the fluorescently labelled Adenosine receptor antagonist XAC (CA200645, FRET acceptor) to terbium-labelled A1, A2a, A2b and A3 adenosine receptors (FRET donors) was detected by time-resolved FRET due to the close proximity of the donor and acceptor in a binding event. To investigate the ability of unlabelled test compounds to bind to Adenosine A1, A2a, A2b and A3 receptors, dose response curves were constructed that determined the ability of a range of concentrations to inhibit the binding of 30 nM CA200645 to the A2b receptor and 100 nM CA200645 to the A1, A2a, and A3 receptor.
Serial dilution (1:3 dilutions) of test compounds in neat DMSO and transfer of a 400 nL sample of test compound into the assay plate was carried out using the Mosquito (TTP Labtech, UK). The compound samples were incubated for 2 hours at room temperature with a fixed concentration of CA200645 defined for each receptor (see above) and CHO cell membranes containing the human Adenosine A1 (0.5 μg/well), A2a (0.3 μg/well), A2b (1 μg/well) or A3 (1 μg/well) receptor in 40 μL of assay buffer. Total and non-specific binding of CA200645 was determined in the absence and presence of 10 μM XAC, respectively. Following 2 hours incubation, the level of CA200645 binding was detected on a Pherastar FSX (BMG Labtech, Germany) using standard TR-FRET settings. The terbium donor was excited with three laser flashes at a wavelength of 337 nm, and donor and acceptor emission was detected at 620 nm and 665 nm wavelengths, respectively. FRET ratios were obtained by multiplying the acceptor/donor ratio value by 10,000. Specific binding was determined by subtracting the non-specific binding FRET ratio from the total binding FRET ratio. Compound IC50 curves were analysed using GraphPad Prism 7.0 (GraphPad, USA) and Ki affinity values were determined from the obtained IC50 values using the method of Cheng and Prusoff.

[7] = test system: CD8+ T cells in human whole blood; test: Measurement of pCREB in CD8+ T cells in human whole blood; assay type: cell-based; conditions: T-cell, 1 h; heparinised human whole blood, rolipram, 3 μM NECA, 60 min, phospho-CREB in CD8+ T cells by FACS
How it was run: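 Heparinised human whole blood preincubated 20 min at 37 °C with serially diluted A2a antagonists plus rolipram, then stimulated 60 min with 3 μM NECA (final). After fixation and RBC lysis, permeabilized leukocytes stained for phospho-CREB and CD8; pCREB in CD8+ T cells read by flow cytometry.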

[8] = test system: human PBMCs; test: CD3/CD28 stimulated IL-2 release NECA reversal assay in human PBMCs; assay type: cell-based; conditions: PBMC, CD3/CD28 antibody stimulated, 1 uM NECA, 24 hours, IL-2 in culture supernatant;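 also: dose-response as % inhibition where 100% equals no-NECA control wells with CD3/CD28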
How it was run: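 PBMCs from citrated donor blood, 50,000 cells/well on plate-bound CD3 antibody (1 ug/ml), with 1 ug/ml CD28 antibody, 1 uM NECA and antagonist at 0.003-10 μM final. After 24 h at 37° C, supernatant IL-2 was measured by MSD immunoassay.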

[9] = target: T4, human Adenosine A2a receptor (Homo sapiens, UniProt P29274); test: Adenosine receptor TR-FRET binding assay (CA200645 displacement), A2a; conditions: 100 nM CA200645, CHO cell membranes, 2 hours at room temperature
T4 construct: expressed in transfected cells; host or cells: CHO cell membranes
T4 sequence (P29274 whole entry): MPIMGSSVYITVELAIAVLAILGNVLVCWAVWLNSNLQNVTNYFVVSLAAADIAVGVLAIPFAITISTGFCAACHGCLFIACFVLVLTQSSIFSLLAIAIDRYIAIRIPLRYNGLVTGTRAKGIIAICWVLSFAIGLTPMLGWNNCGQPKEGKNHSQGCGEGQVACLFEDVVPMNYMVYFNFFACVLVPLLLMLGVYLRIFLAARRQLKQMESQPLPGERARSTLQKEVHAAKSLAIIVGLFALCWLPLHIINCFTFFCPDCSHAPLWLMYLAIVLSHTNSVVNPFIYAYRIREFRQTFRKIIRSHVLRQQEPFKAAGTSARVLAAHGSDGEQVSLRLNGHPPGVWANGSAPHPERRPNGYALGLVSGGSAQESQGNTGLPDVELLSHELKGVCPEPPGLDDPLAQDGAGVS

Sequence of programmed death receptor-1 (PD-1) (Q15116 25-288): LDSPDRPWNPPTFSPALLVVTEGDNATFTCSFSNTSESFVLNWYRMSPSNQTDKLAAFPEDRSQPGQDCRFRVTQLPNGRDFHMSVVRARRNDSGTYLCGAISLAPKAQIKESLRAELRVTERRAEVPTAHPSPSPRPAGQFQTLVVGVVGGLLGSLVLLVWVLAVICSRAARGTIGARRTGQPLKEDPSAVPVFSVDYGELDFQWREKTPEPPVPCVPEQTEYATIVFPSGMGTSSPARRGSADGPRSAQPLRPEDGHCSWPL

Ki [4]	Ki [5]	Ki [6]	IC50 [7]	Ki [9]	Compound	activity in solid tumors [1]	binding to PD-1 [2]	tolerability ([3]; monotherapy and combination with atezolizumab)	CD8+ T infiltration into tumour tissue ([3]; early indications)	tumour size ([3]; early indications)	IC50 [8]
					Cetrelimab: a fully human immunoglobulin (Ig) G4 kappa monoclonal antibody that binds to programmed death receptor-1 (PD-1) with high affinity and specificity	activity in solid tumors	high affinity and specificity				
					Cc1ccc(-c2nc(N)nc3c2nnn3Cc2cccc(CO[C@H]3CCOC3)n2)o1 [CPI-444]			well tolerated	enhancing CD8+ T infiltration into tumour tissue	reducing tumour size	
> 1000 nM	115 nM	3 nM	240 nM	0.7 nM	Cc1cc(-c2c(-c3cccc(C#N)c3)nn3ccc(C(=O)NC[C@@H](O)CO)nc23)cc(Cl)n1 [Example 6.15, 3-(2-Chloro-6-methyl-4-pyridyl)-2-(3-cyanophenyl)-N-[(2R)-2,3-dihydroxypropyl]pyrazolo[1,5-a]pyrimidine-5-carboxamide]						14 nM
> 1000 nM	189 nM	25 nM	1060 nM	4.2 nM	Cc1cc(-c2c(-c3cccc(C#N)c3)nn3ccc(NC[C@H]4COCCN4)nc23)cc(Cl)n1 [Example 4.5]						12 nM

Source: patent US20230203041A1, “ANTAGONISTS OF THE ADENOSINE A2A RECEPTOR” (AdoRx Therapeutics Limited, priority 2020, published 2023)
